Here are results for four substances from patent publication US6492137B1, “Response element compositions and assays employing same” (The Salk Institute for Biological Studies, priority 1989, dated 2002).

Data set [1] concerns RAR. Briefly: Delta-MTV constructs, RA induction in CV-1 cells with cotransfected RAR expression vector. It is filed as cell-based. The note with it: Delta-MTV promoter; with vs without RAR expression vectors. The method, then: (§1) Inspection of the sequences of βRE1, βRE2, and βRE3 (see FIG. 2b) identifies a tandem repeat of the 6 bp motif. The center to center separation of 11 bp between these repeats is one turn of the DNA helix. […] Apparently, a single half site element of the RARβ gene would reciprocally be responsive to the TR, ER, and/or other members of the receptor superfamily.
(§2) Cells were transfected in 10 cm dishes with 10 μg of DNA containing 5 μg of reporter plasmid, 1-2 μg of either RSV-LUC (a), or RSV-βGAL or pCH110 (c and d), pGEM4 as carrier DNA, and for the experiments shown in a and d, 1 μg of RSV-RAR expression vector or the same amount of an RSV vector generating a nonsense transcript. Cells were harvested 1 day after addition of retinoic acid. All CAT assays represent equivalent amounts of β-galactosidase activity; β-GAL assays were normalized to luciferase activity.

Data set [2] has as its system endogenous RA receptor. Briefly: Delta-MTV-CAT constructs, RA induction in CV-1 cells without cotransfected RAR expression vector. The data set is classed as cell-based, monkey. The method, then:
as §2

Data set [3] concerns the target T1, RAR (Homo sapiens, UniProt P10276).
T1 construct: expressed in transfected cells; host or cells: CV-1 (monkey kidney)
T1 sequence (P10276 1-462): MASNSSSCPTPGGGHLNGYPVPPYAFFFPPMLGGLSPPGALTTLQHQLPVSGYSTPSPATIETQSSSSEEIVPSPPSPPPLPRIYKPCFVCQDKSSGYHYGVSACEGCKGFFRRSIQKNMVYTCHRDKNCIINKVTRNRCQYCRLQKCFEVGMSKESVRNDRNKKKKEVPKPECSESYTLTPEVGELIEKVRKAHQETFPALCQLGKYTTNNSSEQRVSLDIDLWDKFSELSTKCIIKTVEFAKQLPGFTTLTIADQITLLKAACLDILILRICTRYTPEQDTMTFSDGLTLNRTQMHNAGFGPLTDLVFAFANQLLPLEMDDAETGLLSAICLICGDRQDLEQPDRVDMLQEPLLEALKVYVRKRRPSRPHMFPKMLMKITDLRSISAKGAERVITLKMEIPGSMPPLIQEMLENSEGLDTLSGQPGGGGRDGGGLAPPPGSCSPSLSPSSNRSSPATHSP
Briefly: Delta-MTV constructs, RA induction in CV-1 cells with cotransfected RAR expression vector. It is filed as cell-based. The following applies: Delta-MTV-CAT constructs; CV-1 cells. The method, then:
as §1, §2

Data set [4] deals with T2, RARα (Homo sapiens, UniProt P10276).
T2 sequence (P10276 1-462): T1 sequence (P10276 1-462)
Kind of data set: ΔSV-CAT reporter cotransfection assay in CV-1 cells with RARα expression plasmid, ±RA. The data set is classed as cell-based. Further details: expressed in transfected cells; host or cells: CV-1 (monkey kidney). The note with it: RA 1 μM. The source says:
Receptor expression plasmids used in the following cotransfection assays have been described previously (pRShTRβ [see Thompson, et al., Proc. Natl. Acad. Sci. U.S.A. 86: 3494-3498 (1989)]; pRShRARα [see Giguere, et al., Nature 330: 624-629 (1987)]; pRShRARβ and pRshRARγ [see Ishikawa, et al., Mol. Endocrinol, 4: 837-844 (1990)]; and pRShVDR, [Schule, et al., Cell 61: 497-504 (1990)]. A basal reporter plasmid ΔSV-CAT was constructed by replacing the TK promoter in TK-CAT [Damm, et al., Nature 339: 593-597 (1989)] with the SphI-HindIII fragment of the SV40 early promoter. All of the recombinant CAT reporter plasmids used herein harbor a single copy of the indicated oligonucleotides at the unique HindIII site upstream of the SV40 promoter. Identity of the inserted oligonucleotides was confirmed by sequencing. To improve production of receptor proteins in COS cells, a new eukaryotic expression vector pCMX was prepared by modifying the plasmid CDM8 [Seed, B., Nature 329: 840-842 (1987)]. The CDM8 was cut with MluI and StuI in order to release the DNA fragment encoding the CMV/T7 promoter, SV40 small t intron/poly A signal, polyoma virus enhancer/origin, and SV40 enhancer/origin. The resulting fragment was ligated to a larger fragment of PvuII-digested PUC19. An internal deletion was introduced between unique BamHI and BclI sites present in the DCM8 portion. The stuffer sequence flanked by XbaI sites was replaced with a synthetic polylinker coding for 5′-KpnI/Asp718-EcoRV-BamHI -MscI-NheI-3′, followed by a stretch of 5′-[…]-3′ (SEQ ID NO:48) which can function as a universal termination signal for protein translation. The coding sequence of the luciferase [de Wet, et al., Mol. Cell. Biol. 7: 725-737 (1987)] and human TRβ, RARα, and VDR was placed in the polylinker region of the pCMX, generating pCMX-LUC, Pcmx-Htrβ, pCMX-hRARα, and pCMX-hVDR, respectively. The translation start site of the RARα was modified to […] by attaching the synthetic linker encoding a consensus translation start signal [Hollenberg, et al., Cell 55: 899-906 (1988)]. […]

Data set [5] concerns the target T3, TRβ (Homo sapiens, UniProt P10828).
T3 sequence (P10828 1-461): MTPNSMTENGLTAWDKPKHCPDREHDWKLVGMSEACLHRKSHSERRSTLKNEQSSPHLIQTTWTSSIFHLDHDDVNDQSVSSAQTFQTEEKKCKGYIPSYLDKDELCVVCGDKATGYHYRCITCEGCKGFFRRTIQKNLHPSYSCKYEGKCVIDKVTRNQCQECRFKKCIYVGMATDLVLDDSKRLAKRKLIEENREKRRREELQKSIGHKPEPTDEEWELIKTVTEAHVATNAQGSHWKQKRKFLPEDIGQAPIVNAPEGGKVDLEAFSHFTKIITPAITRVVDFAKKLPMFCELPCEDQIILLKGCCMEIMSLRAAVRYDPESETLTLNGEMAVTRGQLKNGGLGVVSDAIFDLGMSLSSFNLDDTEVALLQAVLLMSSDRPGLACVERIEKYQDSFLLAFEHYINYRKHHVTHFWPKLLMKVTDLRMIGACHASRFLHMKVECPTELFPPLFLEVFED
Briefly: Gel retardation DNA-binding assay with TRβ-expressing COS cell extracts. The following applies: gel retardation; TRβ COS cell extract. Further details: expressed in transfected cells; host or cells: COS cells (whole-cell extract). The method, then: For DNA binding assays, COS cells were cultured in DMEM with 10% calf bovine serum and transfected by the calcium phosphate method with 20 μg of the pCMX receptor expression plasmid for 6 hours followed by a glycerol shock. After incubating the transfected COS cells for another 48 hours, the cells were harvested to prepare extracts for the DNA binding assay, carried out as described by Damm et al., Nature 339: 593-597 (1989). The extracts were made in 20 mM HEPES (pH 7.4), 0.4 M KCl, 2 mM DTT and 20% glycerol. A similar method was employed to prepare a whole cell extract from F9 stem cells. For the binding, 5 μg (COS) or 10 μg (F9) of proteins was incubated on ice for 20 minutes, first in 20 mM HEPES, 80 mM KCl, 1 mM DTT, 0.1% NP40, 2.5 μg of poly dI/dC, and 10% glycerol (cold competitor oligonucleotides, when included, were added during this pre-incubation period). Then 40 fmole of ^32P-labeled oligonucleotide probe (1-2×10^5 cpm, prepared by filling-in reaction using Klenow polymerase in the presence of α-^32P-dCTP) was added to the reaction mixture, followed by incubation at room temperature for 30 minutes. The receptor-DNA complexes were resolved by electrophoresis through 5% polyacrylamide gel containing 5% glycerol at 6 V/cm at room temperature.
Oligonucleotides listed in FIG. 3 were used as a probe to test specific DNA-binding of the RARα and TRβ in a gel retardation assay.
Using the mobility shift assay, the DNA-binding capacity of extracts from COS cells expressing TRβ and RARα to these sequences was also tested.

For the substance “βRE5: construct containing a single copy of either the 5′- or 3′- half site (SEQ ID NO:9) (AAGCTTAAGGGTTCACCGAGCTT; listed as DNA, chemistry not given here)”, the “function of single half-site constructs” value in data set [1] is reported as “functional only upon cotransfection of RAR expression vectors”. Same read-out and setting: with “βRE4: construct containing a single copy of either the 5′- or 3′- half site (SEQ ID NO:8) (AAGCTTCGAAAGTTCACTCGCATAGCTT; listed as DNA, chemistry not given here)” the entry was “functional only upon cotransfection of RAR expression vectors”. Regarding “5′-AAGCTTAAG-GGTTCA-CCGAA-AGTTCA-CTCAGCTT-3′ (SEQ ID NO:7) (AAGCTTAAGGGTTCACCGAAAGTTCACTCAGCTT; listed as DNA, chemistry not given here) [βRE3, oligonucleotide including the β retinoic acid response element]”, the “RA-dependent induction in the absence of cotransfected RAR expression vector” value in data set [2] is reported as “robust RA-dependent induction”. For the same substance, in data set [3], the “increase of induction by cotransfection of RAR-alpha expression vector” value is reported as “two-fold”. Turning to “DR-4: perfect tandem repeat of AGGTCA hexamers separated by 4 nucleotides (SEQ ID NO:27) (AGCTTCAGGTCACAGGAGGTCAGAGAGCT; DNA, backbone not given here; double-stranded DNA response element with agct overhangs, cloned into reporter)”, the “RA response (in words)” value in data set [4] was “clear activity”. Moreover, the “TRβ binding to labeled oligonucleotide probe” value in data set [5] was “specific protein-DNA complex”.
